In publication PMC10349078, “Sequence-based drug design as a concept in computational drug design” (Nature Communications, 2023):
Blank lines part the entries; values can stand above or below the molecule they belong to.

Tests used:
SPOP^MATH = molecular target: T1, SPOP^MATH (Homo sapiens, UniProt O43791); assay: fluorescence polarization, displacement of FITC-puc_SBC1 peptide; type: binding
T1 construct: MATH domain, residues 28-166; GST tag cut with PreScission protease; E. coli BL21-CodonPlus (DE3)-RIPL

RNF130 = molecular target: T2, RNF130 (Homo sapiens, UniProt Q86XS8); assay: ITC; type: binding; conditions: […] RNF130 in cell, […] compound injected; N = […]
T2 construct: residues 1-304, C-terminal His8-Flag tag kept, expressed in Expi-293F
T2 sequence (Q86XS8 28-304 limits assumed): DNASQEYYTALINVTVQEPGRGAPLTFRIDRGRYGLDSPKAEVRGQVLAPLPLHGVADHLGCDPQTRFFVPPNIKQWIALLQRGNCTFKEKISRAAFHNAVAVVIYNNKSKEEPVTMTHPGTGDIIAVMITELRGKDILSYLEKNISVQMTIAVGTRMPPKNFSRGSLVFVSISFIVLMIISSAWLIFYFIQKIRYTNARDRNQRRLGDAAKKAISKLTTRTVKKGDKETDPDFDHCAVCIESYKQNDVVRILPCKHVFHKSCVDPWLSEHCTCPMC

ARF1^WT (Δ17ARF1) [1] = molecular target: T3, ARF1^WT (Δ17ARF1) (Homo sapiens, UniProt P84077, C159A); assay: protein thermal shift (SYPRO Orange); type: binding; conditions: no covalent adduct by mass spectrometry
T3 construct: N-terminally truncated (first 17 residues removed), His6-tag (pProEX HTb), E. coli BL21-CodonPlus (DE3)-RIPL
Text: protein thermal shift (SYPRO Orange) on ARF1^WT (Δ17ARF1) | PPIs with ARF1^C159A where C159 was mutated to alanine. No Tm shifts were observed

ARF1^WT (Δ17ARF1) [2] = molecular target: T4, ARF1^WT (Δ17ARF1) (Homo sapiens, UniProt P84077); assay: protein thermal shift (SYPRO Orange); intact-protein and tandem MS; type: binding; conditions: […] protein, covalent at C159
T4 construct: N-terminally truncated (first 17 residues removed), His6-tag (pProEX HTb), E. coli BL21-CodonPlus (DE3)-RIPL

ARF1^WT (Δ17ARF1) [3] = molecular target: T4, ARF1^WT (Δ17ARF1); assay: GDP/MANT-GTP nucleotide exchange, fluorescence; type: biochemical; conditions: exchange catalysed by […] human ARNO Sec7 ([…]-250)

T1 sequence (O43791 28-166): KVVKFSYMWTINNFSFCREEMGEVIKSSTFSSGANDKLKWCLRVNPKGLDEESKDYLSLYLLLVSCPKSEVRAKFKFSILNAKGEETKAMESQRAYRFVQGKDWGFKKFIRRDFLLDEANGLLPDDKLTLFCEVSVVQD
T3 sequence (P84077 18-181 C159A): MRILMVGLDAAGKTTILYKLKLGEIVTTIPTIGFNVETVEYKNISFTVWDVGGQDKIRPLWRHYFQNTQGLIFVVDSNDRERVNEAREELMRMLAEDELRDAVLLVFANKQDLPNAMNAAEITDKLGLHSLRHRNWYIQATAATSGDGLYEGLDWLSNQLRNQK

- IC50 (SPOP^MATH): 4.51 µM
Compound: Cc1nnc(SCC2=C(C(=O)O)N3C(=O)C(NC(=O)c4ccc(COc5ccccc5Cl)o4)C3SC2)s1 (stereo not drawn) [221C7]

Compound: CS(=O)(=O)c1nnc(CN2C3C=C(c4ccccc4)CC2CC3)s1 (stereo not drawn) [iRNF130-63]
- Kd (RNF130): 1.23 µM

Compound: COCCCOc1ccnc(C[S+]([O-])c2nc3ccccc3[nH]2)c1C (stereo not drawn) [rabeprazole]
- Tm shift (ARF1^WT (Δ17ARF1) [1]): PPIs with ARF1^C159A where C159 was mutated to alanine. No Tm shifts were observed
- Tm shift (ARF1^WT (Δ17ARF1) [2]; no DTT; […] compound): PPIs could bind directly to wild-type ARF1 (ARF1^WT) and destabilize the protein
- GDP/MANT-GTP nucleotide exchange, fluorescence (ARF1^WT (Δ17ARF1) [3]): rabeprazole suppressed the nucleotide exchange process in a concentration-dependent manner

Compound: COc1ccnc(C[S+]([O-])c2nc3cc(OC(F)F)ccc3[nH]2)c1OC (stereo not drawn) [pantoprazole]
- Tm shift (ARF1^WT (Δ17ARF1) [2]; no DTT): PPIs could bind directly to wild-type ARF1 (ARF1^WT) and destabilize the protein

Compound: Cc1c(OCC(F)(F)F)ccnc1C[S+]([O-])c1nc2ccccc2[nH]1 (stereo not drawn) [lansoprazole]
- Tm shift (ARF1^WT (Δ17ARF1) [2]; no DTT): PPIs could bind directly to wild-type ARF1 (ARF1^WT) and destabilize the protein

- IC50 (SPOP^MATH): > 100 µM
Compound: C=CC1=C(C(=O)O)N2C(=O)[C@@H](NC(=O)CCC3CCCC3)[C@H]2SC1 [222A5, (6R,7R)−7-(3-cyclopentylpropanamido)−8-oxo-3-vinyl-5-thia-1-azabicyclo[4.2.0]oct-2-ene-2-carboxylic acid]

Compound: COc1ccc2[nH]c([S+]([O-])Cc3ncc(C)c(OC)c3C)nc2c1 (stereo not drawn) [omeprazole]
- Tm shift (ARF1^WT (Δ17ARF1) [2]; no DTT): PPIs could bind directly to wild-type ARF1 (ARF1^WT) and destabilize the protein
